Usually IC50 stands for the point on the concentration scale where inhibition reaches its midpoint.

recombinant human ACC2, sequence (O00763 27-2458): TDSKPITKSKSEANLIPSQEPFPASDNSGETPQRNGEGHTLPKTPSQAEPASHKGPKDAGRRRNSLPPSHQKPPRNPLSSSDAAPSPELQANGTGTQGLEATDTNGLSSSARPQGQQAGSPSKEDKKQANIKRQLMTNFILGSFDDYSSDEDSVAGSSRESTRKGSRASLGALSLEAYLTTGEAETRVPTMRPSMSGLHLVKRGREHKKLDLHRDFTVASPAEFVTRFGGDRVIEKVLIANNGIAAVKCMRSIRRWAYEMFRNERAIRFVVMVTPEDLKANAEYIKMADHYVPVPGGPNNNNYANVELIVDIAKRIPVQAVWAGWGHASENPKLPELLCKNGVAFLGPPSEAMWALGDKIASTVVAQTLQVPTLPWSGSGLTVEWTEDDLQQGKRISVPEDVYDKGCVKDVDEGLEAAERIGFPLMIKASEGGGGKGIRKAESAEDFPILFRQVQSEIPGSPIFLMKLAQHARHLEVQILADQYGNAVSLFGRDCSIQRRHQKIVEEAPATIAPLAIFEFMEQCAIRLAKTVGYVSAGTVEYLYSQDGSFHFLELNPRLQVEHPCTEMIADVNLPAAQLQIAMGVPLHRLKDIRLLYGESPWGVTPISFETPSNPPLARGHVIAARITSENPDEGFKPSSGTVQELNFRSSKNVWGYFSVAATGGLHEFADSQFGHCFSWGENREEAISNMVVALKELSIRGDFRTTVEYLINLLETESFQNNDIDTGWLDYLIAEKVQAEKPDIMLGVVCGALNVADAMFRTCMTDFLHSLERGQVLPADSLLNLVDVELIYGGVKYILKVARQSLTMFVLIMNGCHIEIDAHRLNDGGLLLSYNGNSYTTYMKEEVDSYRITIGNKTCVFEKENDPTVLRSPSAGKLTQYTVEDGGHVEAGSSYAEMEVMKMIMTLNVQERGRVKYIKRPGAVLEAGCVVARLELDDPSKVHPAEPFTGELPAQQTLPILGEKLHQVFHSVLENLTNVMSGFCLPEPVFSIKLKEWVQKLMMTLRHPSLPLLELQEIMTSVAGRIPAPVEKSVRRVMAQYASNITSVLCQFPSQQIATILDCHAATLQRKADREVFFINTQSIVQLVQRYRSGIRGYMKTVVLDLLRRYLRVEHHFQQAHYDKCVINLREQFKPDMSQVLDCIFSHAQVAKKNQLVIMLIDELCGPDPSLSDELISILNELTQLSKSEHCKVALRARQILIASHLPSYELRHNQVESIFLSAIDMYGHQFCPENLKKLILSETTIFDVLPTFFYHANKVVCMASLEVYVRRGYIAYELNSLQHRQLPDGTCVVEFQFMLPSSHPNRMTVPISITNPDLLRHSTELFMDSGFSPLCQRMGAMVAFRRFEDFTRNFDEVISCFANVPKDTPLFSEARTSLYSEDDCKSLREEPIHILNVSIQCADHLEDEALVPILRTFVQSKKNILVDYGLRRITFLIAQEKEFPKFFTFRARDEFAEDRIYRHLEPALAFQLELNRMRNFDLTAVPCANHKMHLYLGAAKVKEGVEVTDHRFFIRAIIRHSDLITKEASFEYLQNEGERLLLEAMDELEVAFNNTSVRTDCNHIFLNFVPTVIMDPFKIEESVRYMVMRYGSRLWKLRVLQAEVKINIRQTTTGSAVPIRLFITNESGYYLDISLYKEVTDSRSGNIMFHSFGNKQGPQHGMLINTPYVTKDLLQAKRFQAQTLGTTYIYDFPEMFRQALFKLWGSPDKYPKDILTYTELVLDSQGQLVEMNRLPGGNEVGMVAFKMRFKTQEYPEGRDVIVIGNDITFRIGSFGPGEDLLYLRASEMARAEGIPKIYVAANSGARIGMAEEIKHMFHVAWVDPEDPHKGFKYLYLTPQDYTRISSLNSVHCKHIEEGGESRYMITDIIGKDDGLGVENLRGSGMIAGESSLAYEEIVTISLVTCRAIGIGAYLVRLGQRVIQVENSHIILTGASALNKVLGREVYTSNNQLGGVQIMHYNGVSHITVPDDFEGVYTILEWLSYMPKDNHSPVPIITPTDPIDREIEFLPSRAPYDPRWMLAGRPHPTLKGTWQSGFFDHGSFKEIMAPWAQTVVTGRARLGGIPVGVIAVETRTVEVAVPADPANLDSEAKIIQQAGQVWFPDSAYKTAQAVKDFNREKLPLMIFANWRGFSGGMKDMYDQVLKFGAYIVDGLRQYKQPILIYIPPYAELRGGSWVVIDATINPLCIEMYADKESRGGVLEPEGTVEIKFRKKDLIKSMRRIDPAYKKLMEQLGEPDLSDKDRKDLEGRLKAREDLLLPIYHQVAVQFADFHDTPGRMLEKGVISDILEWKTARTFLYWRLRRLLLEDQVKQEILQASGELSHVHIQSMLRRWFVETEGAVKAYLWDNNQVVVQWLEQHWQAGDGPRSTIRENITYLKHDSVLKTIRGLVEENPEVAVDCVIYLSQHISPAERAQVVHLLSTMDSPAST

This assay addresses recombinant human ACC2 (Homo sapiens (Human), UniProt O00763). Put plainly: Measurement of inhibitory activity on human ACC2 (MALDI-TOF MS, acetyl CoA to malonyl CoA conversion). Particulars: Tables 155-159. The assay is classed as biochemical. In a few lines: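 His-tagged human ACC2 (residues 27–2458) from baculovirus-infected Sf-9 cells was preincubated 1 h in pH 7.4 HEPES-KOH buffer with MgCl2, 6-10 mM potassium citrate, glutathione and BSA. Substrate solution held 1 mM ATP, 0.8 mM acetyl CoA and 25-50 mM bicarbonate. After 1–3 h at room temperature, malonyl CoA/(malonyl+acetyl CoA) was read by negative-mode MALDI-TOF MS; citrate, bicarbonate and time varied by enzyme lot.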
Regarding `CC(=O)N[C@@H](C)CO[C@H]1CC[C@H](Oc2ccc3nc(CC4CC4)n(C)c3n2)CC1` [Compound I-512], the IC50 turned out to be 110 nM. Turning to `CC(=O)N[C@@H](C)CO[C@H]1CC[C@H](Oc2ccc3nc(C(C)C)n(C)c3n2)CC1` [Compound I-513], the IC50 came to 260 nM. Take `CC(=O)N[C@@H](C)CO[C@H]1CC[C@H](Oc2ccc3nc(CCC4CC4)n(C)c3n2)CC1` [Compound I-514]: the IC50 worked out at 32 nM. Take `CC(=O)N[C@@H](C)CO[C@H]1CC[C@H](Oc2ccc3nc(CCC(F)(F)F)n(C)c3n2)CC1` [Compound I-515]: the IC50 amounted to 41 nM. To `CCOc1nc2cc(F)c(O[C@H]3CC[C@H](OC[C@H](C)NC(C)=O)CC3)nc2n1C` [Compound I-516] belongs 27 nM; to `CCCOc1nc2cc(F)c(O[C@H]3CC[C@H](OC[C@H](C)NC(C)=O)CC3)nc2n1C` [Compound I-517], 14 nM; to `CC(=O)N[C@@H](C)CO[C@H]1CC[C@H](Oc2nc3c(cc2F)nc(OC2CC(F)(F)C2)n3C)CC1` [Compound I-518], 13 nM. Turning to `CCOc1nc2ccc(OC[C@H]3C[C@H](OC[C@H](C)NC(C)=O)C3)nc2n1C` [Compound I-519], the IC50 was found to be 170 nM. For `CCOc1nc2ccc(OC[C@H]3C[C@@H](OC[C@H](C)NC(C)=O)C3)nc2n1C` [Compound I-520], the half-inhibitory concentration (IC50) worked out at 315 nM. Then `CC(=O)N[C@@H](C)CO[C@H]1CC[C@H](Oc2ncc(-c3ncc(F)cn3)cc2F)CC1` [Compound I-521], with 20 nM; and `CC(=O)N[C@@H](C)CO[C@H]1CC[C@H](Oc2ncc(-c3ncc(F)cn3)cc2Cl)CC1` [Compound I-522], with 8 nM; and `CC(=O)N[C@@H](C)CO[C@H]1CC[C@H](Oc2ncc(-c3ncccn3)cc2F)CC1` [Compound I-523], with 105 nM.

`CC(=O)N[C@@H](C)CO[C@H]1CC[C@H](Oc2ncc(-c3ncc(C#N)cn3)cc2F)CC1` [Compound I-524]: the 50% inhibitory concentration (IC50) worked out at 64 nM. Consider `CC(=O)N[C@@H](C)CO[C@H]1CC[C@H](Oc2ncc(-c3ncc(F)cn3)cc2C#N)CC1` [Compound I-525], for which the IC50 was 41 nM.

As to `CC(=O)N[C@@H](C)CO[C@H]1CC[C@H](Oc2ncc(-c3ncc(Cl)cn3)cc2F)CC1` [Compound I-526], the IC50 came out at 13 nM. For the compound `COc1cc(-c2ncc(F)cn2)cnc1O[C@H]1CC[C@H](OC[C@H](C)NC(C)=O)CC1` [Compound I-527], the IC50 worked out at 158 nM. With `COc1cnc(-c2cnc(O[C@H]3CC[C@H](OC[C@H](C)NC(C)=O)CC3)c(F)c2)nc1` [Compound I-528], the IC50 was determined as 61 nM. With `CC(=O)N[C@@H](C)CO[C@H]1CC[C@H](Oc2ncc(-c3ncc(C(C)C)cn3)cc2F)CC1` [Compound I-529], the IC50 was determined as 172 nM. For the compound `CC(=O)N[C@@H](C)CO[C@H]1CC[C@H](Oc2ncc(-c3ncc(C#N)cn3)cc2C#N)CC1` [Compound I-530], the IC50 was determined as 196 nM. On to `CC(=O)N[C@@H](C)CO[C@H]1CC[C@H](Oc2ncc(-c3nccc(C#N)n3)cc2F)CC1` [Compound I-531], for which the IC50 was 481 nM. In the case of `CC(=O)N[C@@H](C)CO[C@H]1CC[C@H](Oc2ncc(-c3ncc(F)cn3)cc2C)CC1` [Compound I-532], the IC50 is 6 nM. Turning to `CCc1cnc(-c2cnc(O[C@H]3CC[C@H](OC[C@H](C)NC(C)=O)CC3)c(F)c2)nc1` [Compound I-533], the IC50 stood at 102 nM. To `CC(=O)N[C@@H](C)CO[C@H]1CC[C@H](Oc2ncc(-c3ncc(C)cn3)cc2F)CC1` [Compound I-534] belongs 67 nM; to `CC(=O)N[C@@H](C)CO[C@H]1CC[C@H](Oc2ncc(-c3ncc(Cl)cn3)cc2C#N)CC1` [Compound I-535], 30 nM. Then `CC(=O)N[C@@H](C)CO[C@H]1CC[C@H](Oc2ncc(-c3ncc(C4CC4)cn3)cc2F)CC1` [Compound I-536], with 28 nM; and `CC(=O)N[C@@H](C)CO[C@H]1CC[C@H](Oc2ncc(-c3ncc(F)cn3)cc2OCc2ccccc2)CC1` [Compound I-537], with 975 nM. To `C[C@@H](CO[C@H]1CC[C@H](Oc2ncc(-c3ncc(F)cn3)cc2F)CC1)NC(N)=O` [Compound I-538] belongs 71 nM; to `CCOC(=O)c1cc(C(=O)N[C@@H](C)CO[C@H]2CC[C@H](Oc3ncc(-c4ncc(F)cn4)cc3F)CC2)ccn1` [Compound I-539], 92 nM; to `C[C@@H](CO[C@H]1CC[C@H](Oc2ncc(-c3ncc(F)cn3)cc2F)CC1)NS(C)(=O)=O` [Compound I-540], 323 nM. Consider `COC(=O)N[C@@H](C)CO[C@H]1CC[C@H](Oc2ncc(-c3ncc(F)cn3)cc2F)CC1` [Compound I-541], for which the IC50 stood at 130 nM. Then `CC(=O)N[C@@H](C)CO[C@H]1CC[C@H](Oc2ncc(-c3ncc(F)cn3)cc2F)CC1` [Compound I-542], with 6 nM; and `CC(=O)N[C@@H](C)CC[C@H]1CC[C@H](Oc2ncc(-c3ncc(C(F)(F)F)cn3)cc2F)CC1` [Compound I-543], with 14 nM; and `CC(=O)N[C@@H](C)CC[C@H]1CC[C@H](Oc2ncc(-c3ncc(Cl)cn3)cc2F)CC1` [Compound I-544], with 4 nM. With `CC(=O)N[C@@H](C)CO[C@H]1CC[C@H](Oc2ncc(-c3ncc(C(F)(F)F)cn3)cc2F)CC1` [Compound I-545], the IC50 is 46 nM.

Turning to `CC(=O)N[C@@H](C)CO[C@H]1CC[C@H](Oc2ncc(-c3ncc(C(F)(F)F)cn3)cc2C#N)CC1` [Compound I-546], the IC50 is 66 nM.

As to `CC(=O)N[C@@H](C)CO[C@H]1CC[C@H](Oc2nc3ccc(Br)cc3s2)CC1` [Compound I-547], the IC50 stood at 104 nM. To `CC(=O)N[C@@H](C)CO[C@H]1CC[C@H](Oc2ncc3cc(OCC4CC4)ccc3n2)CC1` [Compound I-548] belongs 124 nM; to `CC(=O)N[C@@H](C)CO[C@H]1CC[C@H](Oc2nc3cc(Br)ccc3s2)CC1` [Compound I-549], 37 nM; to `CC(=O)N[C@@H](C)CO[C@H]1CC[C@H](Oc2nc3ccc(OCC4CC4)cc3s2)CC1` [Compound I-550], 21 nM. As for `CC(=O)N[C@@H](C)CO[C@H]1CC[C@H](Oc2nc3cnc(OCC(F)F)cc3s2)CC1` [Compound I-551], the concentration for half-maximal inhibition (IC50) stood at 15 nM. Take `CC(=O)N[C@@H](C)CO[C@H]1CC[C@H](Oc2nc3cnc(OCC(F)F)c(F)c3s2)CC1` [Compound I-552]: the IC50 stood at 13 nM. Regarding `CC(=O)N[C@@H](C)CO[C@H]1CC[C@H](Oc2nc3ccc(OCC(F)F)nc3s2)CC1` [Compound I-553], the IC50 is 196 nM. For the compound `CC(=O)N[C@@H](C)CO[C@H]1CC[C@H](Oc2ncc3cc(OCC(F)F)ccc3n2)CC1` [Compound I-554], the IC50 came out at 620 nM.

As to `CC(=O)N[C@@H](C)CO[C@H]1CC[C@H](Oc2ncc3c(Cl)c(OCC4CC4)ccc3n2)CC1` [Compound I-555], the IC50 is 34 nM. Then `CC(=O)N[C@@H](C)CO[C@H]1CC[C@H](Oc2nc3ccc(Br)cc3n2C)CC1` [Compound I-556], with 105 nM. As to `CC(=O)N[C@@H](C)CO[C@H]1CC[C@H](Oc2nc3cc(Br)ccc3n2C)CC1` [Compound I-557], the IC50 is 216 nM. Then `CC(=O)N[C@@H](C)CO[C@H]1CC[C@H](Oc2nc3ccc(OCc4ccccc4)cc3n2C)CC1` [Compound I-558], with 43 nM; and `CCOc1ccc2nc(O[C@H]3CC[C@H](OC[C@H](C)NC(C)=O)CC3)n(C)c2c1` [Compound I-559], with 43 nM. `CC(=O)N[C@@H](C)CO[C@H]1CC[C@H](Oc2nc3ccc(OC(C)C)cc3n2C)CC1` [Compound I-560]: the IC50 is 101 nM. Consider `CC(=O)N[C@@H](C)CO[C@H]1CC[C@H](Oc2nc3ccc(OCC4CC4)cc3n2C)CC1` [Compound I-561], for which the IC50 came out at 104 nM.

Regarding `CCOc1ccc2nc(O[C@H]3CC[C@H](OC[C@H](C)NC(C)=O)CC3)n(C(C)C)c2c1` [Compound I-562], the IC50 is 350 nM.

As for `CCOc1cc2c(cn1)nc(O[C@H]1CC[C@H](OC[C@H](C)NC(C)=O)CC1)n2C` [Compound I-563], the half-maximal inhibitory concentration (IC50) was determined as 101 nM. To `CCOc1ccc2c(c1)nc(O[C@H]1CC[C@H](OC[C@H](C)NC(C)=O)CC1)n2C` [Compound I-564] belongs 385 nM.

`CC(=O)N[C@@H](C)CO[C@H]1CC[C@H](Oc2nc3cc(OC(C)C)ccc3n2C)CC1` [Compound I-566]: the IC50 came to 304 nM. On to `CC(=O)N[C@@H](C)CO[C@H]1CC[C@H](Oc2nc3cc(OCC4CC4)ccc3n2C)CC1` [Compound I-567], for which the IC50 was 167 nM.

Take `CCOc1ccc2nc(O[C@H]3CC[C@H](OC[C@H](C)NC(C)=O)CC3)n(C3CC3)c2c1` [Compound I-568]: the IC50 worked out at 225 nM.

On to `CC(=O)N[C@@H](C)CO[C@H]1CC[C@H](Oc2nc3ccc(OCC(F)F)cc3n2C)CC1` [Compound I-569], for which the IC50 worked out at 86 nM.

Consider `COc1ccc2c(c1)nc(O[C@H]1CC[C@H](OC[C@H](C)NC(C)=O)CC1)n2C` [Compound I-570], for which the IC50 turned out to be 935 nM.

Take `CC(=O)N[C@@H](C)CO[C@H]1CC[C@H](Oc2nc3ccc(OCC(F)(F)F)cc3n2C)CC1` [Compound I-571]: the half-maximal inhibitory concentration (IC50) amounted to 166 nM. To `CC(=O)N[C@@H](C)CO[C@H]1CC[C@H](Oc2nc3ccc(OC(F)(F)F)cc3n2C)CC1` [Compound I-572] belongs 227 nM; to `CCCc1ccc2nc(O[C@H]3CC[C@H](OC[C@H](C)NC(C)=O)CC3)n(C)c2c1` [Compound I-573], 68 nM; to `CC(=O)N[C@@H](C)CO[C@H]1CC[C@H](Oc2nc3ccc(C4CC4)cc3n2C)CC1` [Compound I-574], 129 nM. Consider `CCSc1ccc2nc(O[C@H]3CC[C@H](OC[C@H](C)NC(C)=O)CC3)n(C)c2c1` [Compound I-577], for which the IC50 is 62 nM.

Regarding `CC(=O)N[C@@H](C)CO[C@H]1CC[C@H](Oc2nc3ccc(SCC(C)C)cc3n2C)CC1` [Compound I-578], the IC50 stood at 110 nM.
